# Test results: PubChem BioAssay (NCI)
# Several values for one entry are separate records, joined by “and”; a condition that tells them apart may be missing. Equal values may be shown once.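 Cultured in 96-well plates, cells were exposed to test compound for 48 hours across five concentrations. Here, GI50 denotes the concentration required for 50% inhibition of growth. At the TGI there is no net growth.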
# Legend:
# Experiment in all cases: NCI anticancer screen, dose series, 48 h
# SK-MEL-28 melanoma = test system: SK-MEL-28 melanoma
# M14 melanoma = test system: M14 melanoma
# HOP-92 NSCLC = test system: HOP-92 NSCLC
# OVCAR-5 ovarian = test system: OVCAR-5 ovarian
# A498 renal = test system: A498 renal
# HT29 colon = test system: HT29 colon
# KM12 colon = test system: KM12 colon
# SW-620 colon = test system: SW-620 colon
# PC-3 prostate = test system: PC-3 prostate
# OVCAR-4 ovarian = test system: OVCAR-4 ovarian
# HCT-15 colon = test system: HCT-15 colon
# DU-145 prostate = test system: DU-145 prostate
# MDA-MB-231 breast = test system: MDA-MB-231 breast
# A549 NSCLC = test system: A549 NSCLC
# ACHN renal = test system: ACHN renal
# SF-268 CNS = test system: SF-268 CNS
# RPMI-8226 leukemia = test system: RPMI-8226 leukemia
# RXF 393 renal = test system: RXF 393 renal
# TK-10 renal = test system: TK-10 renal
# SK-MEL-2 melanoma = test system: SK-MEL-2 melanoma
# NCI-H23 lung = test system: NCI-H23 lung
# K-562 leukemia = test system: K-562 leukemia
# SF-295 CNS = test system: SF-295 CNS
# NCI/ADR-RES ovarian = test system: NCI/ADR-RES ovarian
# IGROV1 ovarian = test system: IGROV1 ovarian
# NCI-H522 lung = test system: NCI-H522 lung
# HS 578T breast = test system: HS 578T breast
# HCT-116 colon = test system: HCT-116 colon
# HL-60(TB) leukemia = test system: HL-60(TB) leukemia
# NCI-H226 lung = test system: NCI-H226 lung
# SF-539 CNS = test system: SF-539 CNS
# MDA-N = test system: MDA-N
# EKVX NSCLC = test system: EKVX NSCLC
# OVCAR-3 ovarian = test system: OVCAR-3 ovarian
# U251 CNS = test system: U251 CNS
# MCF7 breast = test system: MCF7 breast
# CAKI-1 renal = test system: CAKI-1 renal
# SNB-75 CNS = test system: SNB-75 CNS
# NCI-H460 lung = test system: NCI-H460 lung
# COLO 205 colon = test system: COLO 205 colon
# UACC-257 melanoma = test system: UACC-257 melanoma
# MDA-MB-435 = test system: MDA-MB-435
# MALME-3M melanoma = test system: MALME-3M melanoma
# HOP-62 NSCLC = test system: HOP-62 NSCLC
# UACC-62 melanoma = test system: UACC-62 melanoma
# 786-0 renal = test system: 786-0 renal
# BT-549 breast = test system: BT-549 breast
# OVCAR-8 ovarian = test system: OVCAR-8 ovarian
# UO-31 renal = test system: UO-31 renal
# T-47D breast = test system: T-47D breast
# MOLT-4 leukemia = test system: MOLT-4 leukemia
# SN12C renal = test system: SN12C renal
# CCRF-CEM leukemia = test system: CCRF-CEM leukemia
# SK-MEL-5 melanoma = test system: SK-MEL-5 melanoma
# SNB-19 CNS = test system: SNB-19 CNS
# LOX IMVI melanoma = test system: LOX IMVI melanoma
# HCC-2998 colon = test system: HCC-2998 colon
# SK-OV-3 ovarian = test system: SK-OV-3 ovarian
# SR leukemia = test system: SR leukemia
smiles,measurement,setting,value
COCCOC1=CC(=O)c2c(O)ccc(O)c2C1=O,GI50,SK-MEL-28 melanoma,1.75 µM
same,TGI,SK-MEL-28 melanoma,2.9 µM and 3.37 µM
same,GI50,M14 melanoma,0.818 µM
same,TGI,M14 melanoma,0.353 µM and 2.16 µM
same,GI50,HOP-92 NSCLC,1.54 µM
same,TGI,HOP-92 NSCLC,3.7 µM and 3.59 µM
same,GI50,OVCAR-5 ovarian,1.92 µM
same,TGI,OVCAR-5 ovarian,2.96 µM and 3.46 µM
same,GI50,A498 renal,2.16 µM
same,TGI,A498 renal,3.18 µM and 3.92 µM
same,GI50,HT29 colon,0.995 µM
same,TGI,HT29 colon,2.05 µM and 2.64 µM
same,GI50,KM12 colon,3.05 µM
same,TGI,KM12 colon,3.54 µM and 11.7 µM
same,GI50,SW-620 colon,1.32 µM
same,TGI,SW-620 colon,6.55 µM and 3.18 µM
same,GI50,PC-3 prostate,2.67 µM
same,TGI,PC-3 prostate,4.77 µM and 8.28 µM
same,GI50,OVCAR-4 ovarian,1.61 µM
same,TGI,OVCAR-4 ovarian,3.3 µM and 2.97 µM
same,GI50,HCT-15 colon,1.6 µM
same,TGI,HCT-15 colon,2.62 µM and 3.38 µM
same,GI50,DU-145 prostate,0.5 µM
same,TGI,DU-145 prostate,2.12 µM and 1.62 µM
same,GI50,MDA-MB-231 breast,2.45 µM
same,TGI,MDA-MB-231 breast,3.23 µM and 6.14 µM
same,GI50,A549 NSCLC,1.74 µM
same,TGI,A549 NSCLC,4.15 µM and 3.78 µM
same,GI50,ACHN renal,1.63 µM
same,TGI,ACHN renal,3.41 µM and 3.14 µM
same,GI50,SF-268 CNS,3.29 µM
same,TGI,SF-268 CNS,3.54 µM and 10.9 µM
same,GI50,RPMI-8226 leukemia,2.03 µM
same,TGI,RPMI-8226 leukemia,8.86 µM and 5.06 µM
same,GI50,RXF 393 renal,1.5 µM
same,TGI,RXF 393 renal,3.63 µM and 2.94 µM
same,GI50,TK-10 renal,2.9 µM
same,TGI,TK-10 renal,3.57 µM and 5.78 µM
same,GI50,SK-MEL-2 melanoma,1.86 µM
same,TGI,SK-MEL-2 melanoma,2.58 µM and 3.82 µM
same,GI50,NCI-H23 lung,1.44 µM
same,TGI,NCI-H23 lung,2.43 µM and 3.34 µM
same,GI50,K-562 leukemia,1.4 µM
same,TGI,K-562 leukemia,5.77 µM and 3.57 µM
same,GI50,SF-295 CNS,2.06 µM
same,TGI,SF-295 CNS,3.09 µM and 3.93 µM
same,TGI,NCI/ADR-RES ovarian,7.41 µM and 5.63 µM
same,TGI,IGROV1 ovarian,3.11 µM and 2.97 µM
same,GI50,NCI-H522 lung,1.69 µM
same,TGI,NCI-H522 lung,4.44 µM and 3.37 µM
same,TGI,HS 578T breast,6.88 µM
same,GI50,HCT-116 colon,1.29 µM
same,TGI,HCT-116 colon,1 µM and 2.64 µM
same,GI50,HL-60(TB) leukemia,0.305 µM
same,TGI,HL-60(TB) leukemia,2.26 µM and 1.04 µM
same,TGI,NCI-H226 lung,4.01 µM and 4.16 µM
same,TGI,SF-539 CNS,3.12 µM and 3.16 µM
same,GI50,MDA-N,0.359 µM
same,TGI,MDA-N,0.341 µM and 1.13 µM
same,TGI,EKVX NSCLC,3.88 µM and 3.93 µM
same,GI50,OVCAR-3 ovarian,0.319 µM
same,TGI,OVCAR-3 ovarian,1.86 µM and 1.13 µM
same,TGI,U251 CNS,3.55 µM and 3.54 µM
same,GI50,MCF7 breast,0.51 µM
same,TGI,MCF7 breast,0.933 µM and 1.92 µM
same,GI50,CAKI-1 renal,1.68 µM
same,TGI,CAKI-1 renal,4.37 µM and 3.14 µM
same,GI50,SNB-75 CNS,1.69 µM
same,TGI,SNB-75 CNS,3.43 µM and 3.09 µM
same,GI50,NCI-H460 lung,2.01 µM
same,TGI,NCI-H460 lung,3.11 µM and 4.2 µM
same,GI50,COLO 205 colon,0.32 µM
same,TGI,COLO 205 colon,0.661 µM and 1.2 µM
same,GI50,UACC-257 melanoma,0.626 µM
same,TGI,UACC-257 melanoma,0.409 µM and 2.06 µM
same,TGI,MDA-MB-435,0.324 µM and 0.323 µM
same,GI50,MALME-3M melanoma,0.808 µM
same,TGI,MALME-3M melanoma,0.328 µM and 2.07 µM
same,GI50,HOP-62 NSCLC,1.9 µM
same,TGI,HOP-62 NSCLC,1.8 µM and 3.31 µM
same,GI50,UACC-62 melanoma,1.62 µM
same,TGI,UACC-62 melanoma,3.74 µM and 3.58 µM
same,GI50,786-0 renal,1.84 µM
same,TGI,786-0 renal,3.06 µM and 3.61 µM
same,TGI,BT-549 breast,3.17 µM
same,TGI,OVCAR-8 ovarian,3.49 µM
same,GI50,UO-31 renal,1.63 µM
same,TGI,UO-31 renal,3.83 µM and 3.35 µM
same,TGI,T-47D breast,4.83 µM
same,GI50,MOLT-4 leukemia,1.44 µM
same,TGI,MOLT-4 leukemia,8.03 µM and 3.53 µM
same,GI50,SN12C renal,1.46 µM
same,TGI,SN12C renal,3.03 µM and 2.83 µM
same,GI50,CCRF-CEM leukemia,1.92 µM
same,TGI,CCRF-CEM leukemia,7.01 µM and 4.31 µM
same,TGI,SK-MEL-5 melanoma,0.3 µM and 0.295 µM
same,TGI,SNB-19 CNS,3.82 µM
same,GI50,LOX IMVI melanoma,0.914 µM
same,TGI,LOX IMVI melanoma,2.34 µM and 2.13 µM
same,GI50,HCC-2998 colon,1.7 µM
same,TGI,HCC-2998 colon,4.03 µM and 3.12 µM
same,GI50,SK-OV-3 ovarian,17.9 µM
same,TGI,SK-OV-3 ovarian,31.7 µM
CC(=O)OCC1OC(N2C(c3ccccc3)=CC(c3ccco3)C(C#N)=C2S)C(OC(C)=O)C(OC(C)=O)C1OC(C)=O (stereo unspecified),TGI,SK-MEL-28 melanoma,> 75.5 µM
same,TGI,M14 melanoma,16.9 µM
same,TGI,HOP-92 NSCLC,26.9 µM
same,TGI,OVCAR-5 ovarian,22 µM
same,TGI,A498 renal,> 63.3 µM
same,TGI,HT29 colon,> 100 µM
same,TGI,KM12 colon,> 100 µM
same,TGI,SW-620 colon,4.2 µM
same,TGI,PC-3 prostate,> 38.6 µM
same,TGI,OVCAR-4 ovarian,9.16 µM
same,TGI,HCT-15 colon,> 100 µM
same,TGI,DU-145 prostate,> 88.2 µM
same,TGI,SR leukemia,> 37.5 µM
same,TGI,MDA-MB-231 breast,8.65 µM
same,TGI,A549 NSCLC,> 65.6 µM
same,TGI,ACHN renal,24.8 µM
same,TGI,SF-268 CNS,> 57.4 µM
same,TGI,RPMI-8226 leukemia,> 45 µM
same,TGI,RXF 393 renal,15.7 µM
same,TGI,TK-10 renal,37.5 µM
same,TGI,SK-MEL-2 melanoma,65.4 µM
same,TGI,NCI-H23 lung,23.7 µM
same,TGI,K-562 leukemia,> 100 µM
same,TGI,SF-295 CNS,> 70.3 µM
same,TGI,NCI/ADR-RES ovarian,39.9 µM
same,TGI,IGROV1 ovarian,> 67.1 µM
same,TGI,NCI-H522 lung,> 39.8 µM
same,TGI,HS 578T breast,7.61 µM
same,TGI,HCT-116 colon,33.2 µM
same,TGI,NCI-H226 lung,24.3 µM
same,TGI,SF-539 CNS,5.35 µM
same,TGI,MDA-N,> 53.9 µM
same,TGI,EKVX NSCLC,> 52.1 µM
same,TGI,OVCAR-3 ovarian,18.3 µM
same,TGI,U251 CNS,8.6 µM
same,TGI,MCF7 breast,> 82.4 µM
same,TGI,CAKI-1 renal,34.1 µM
same,TGI,SNB-75 CNS,8.9 µM
same,TGI,NCI-H460 lung,> 62.2 µM
same,TGI,COLO 205 colon,28.5 µM
same,TGI,UACC-257 melanoma,> 100 µM
same,TGI,MDA-MB-435,> 70.5 µM
same,TGI,MALME-3M melanoma,13.6 µM
same,TGI,HOP-62 NSCLC,19.5 µM
same,TGI,UACC-62 melanoma,65 µM
same,TGI,786-0 renal,5.93 µM
same,TGI,BT-549 breast,> 100 µM
same,TGI,OVCAR-8 ovarian,12.1 µM
same,TGI,UO-31 renal,29.5 µM
same,TGI,T-47D breast,> 67.9 µM
same,TGI,MOLT-4 leukemia,> 75.4 µM
same,TGI,SN12C renal,26.2 µM
same,TGI,CCRF-CEM leukemia,> 100 µM
same,TGI,SK-MEL-5 melanoma,17.9 µM
same,TGI,SNB-19 CNS,38.7 µM
same,TGI,LOX IMVI melanoma,> 46.4 µM
same,TGI,HCC-2998 colon,48.9 µM
same,TGI,SK-OV-3 ovarian,59 µM
